For one assay, the target named is D(3) dopamine receptor (Homo sapiens, UniProt P35462).
Assay [1] deals with 5-hydroxytryptamine receptor 1B (Cavia porcellus, UniProt O08892).
The target in assay [2] is T1, Alpha-2A adrenergic receptor [16-465] (Rattus norvegicus, UniProt P22909).
T1 construct: 16-465
T1 sequence (P22909 whole entry): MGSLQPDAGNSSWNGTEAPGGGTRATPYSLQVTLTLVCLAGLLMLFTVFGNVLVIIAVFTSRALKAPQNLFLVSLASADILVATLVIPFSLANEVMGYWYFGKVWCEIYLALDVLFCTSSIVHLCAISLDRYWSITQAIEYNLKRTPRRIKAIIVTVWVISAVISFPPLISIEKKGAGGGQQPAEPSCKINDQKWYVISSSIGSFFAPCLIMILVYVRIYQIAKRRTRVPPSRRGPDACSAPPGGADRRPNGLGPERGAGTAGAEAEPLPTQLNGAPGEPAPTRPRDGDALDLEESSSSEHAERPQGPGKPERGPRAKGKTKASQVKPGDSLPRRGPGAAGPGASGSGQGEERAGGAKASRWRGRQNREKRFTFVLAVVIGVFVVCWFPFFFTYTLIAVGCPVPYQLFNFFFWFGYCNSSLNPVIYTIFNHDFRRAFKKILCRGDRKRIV

Assay [3] has as its target T2, Alpha-2C adrenergic receptor (Homo sapiens, UniProt P18825).
T2 sequence (P18825 whole entry): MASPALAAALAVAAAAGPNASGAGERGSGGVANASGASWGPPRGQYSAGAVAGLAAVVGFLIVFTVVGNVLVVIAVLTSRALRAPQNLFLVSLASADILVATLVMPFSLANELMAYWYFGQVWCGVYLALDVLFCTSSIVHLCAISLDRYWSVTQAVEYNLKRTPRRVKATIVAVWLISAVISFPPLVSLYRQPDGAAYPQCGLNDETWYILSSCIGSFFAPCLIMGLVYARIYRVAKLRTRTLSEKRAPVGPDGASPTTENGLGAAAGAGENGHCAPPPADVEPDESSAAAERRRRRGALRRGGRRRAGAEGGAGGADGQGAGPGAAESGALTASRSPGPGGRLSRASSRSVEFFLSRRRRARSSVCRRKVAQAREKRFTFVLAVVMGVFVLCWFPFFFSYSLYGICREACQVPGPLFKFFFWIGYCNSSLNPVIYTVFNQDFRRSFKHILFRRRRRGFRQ

The target of assay [4] is D(2) dopamine receptor (Rattus norvegicus, UniProt P61169).
Assay [5] addresses T3, Alpha-2A adrenergic receptor (Homo sapiens, UniProt P08913).
T3 sequence (P08913 whole entry): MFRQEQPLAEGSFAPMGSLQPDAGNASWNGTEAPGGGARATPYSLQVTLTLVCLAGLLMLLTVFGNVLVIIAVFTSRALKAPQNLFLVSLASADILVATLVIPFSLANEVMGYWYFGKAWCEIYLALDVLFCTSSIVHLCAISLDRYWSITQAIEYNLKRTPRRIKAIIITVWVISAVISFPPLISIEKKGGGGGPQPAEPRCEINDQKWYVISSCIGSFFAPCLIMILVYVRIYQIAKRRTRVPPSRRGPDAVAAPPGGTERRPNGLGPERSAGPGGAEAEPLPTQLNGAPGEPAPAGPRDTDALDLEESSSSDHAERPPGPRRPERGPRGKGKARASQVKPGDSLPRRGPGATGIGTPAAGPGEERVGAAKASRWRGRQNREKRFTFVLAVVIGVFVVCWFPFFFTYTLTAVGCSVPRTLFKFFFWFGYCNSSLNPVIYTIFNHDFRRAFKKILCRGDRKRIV

In assay [6] the target is T4, Alpha-1D adrenergic receptor (Homo sapiens, UniProt P25100).
T4 sequence (P25100 whole entry): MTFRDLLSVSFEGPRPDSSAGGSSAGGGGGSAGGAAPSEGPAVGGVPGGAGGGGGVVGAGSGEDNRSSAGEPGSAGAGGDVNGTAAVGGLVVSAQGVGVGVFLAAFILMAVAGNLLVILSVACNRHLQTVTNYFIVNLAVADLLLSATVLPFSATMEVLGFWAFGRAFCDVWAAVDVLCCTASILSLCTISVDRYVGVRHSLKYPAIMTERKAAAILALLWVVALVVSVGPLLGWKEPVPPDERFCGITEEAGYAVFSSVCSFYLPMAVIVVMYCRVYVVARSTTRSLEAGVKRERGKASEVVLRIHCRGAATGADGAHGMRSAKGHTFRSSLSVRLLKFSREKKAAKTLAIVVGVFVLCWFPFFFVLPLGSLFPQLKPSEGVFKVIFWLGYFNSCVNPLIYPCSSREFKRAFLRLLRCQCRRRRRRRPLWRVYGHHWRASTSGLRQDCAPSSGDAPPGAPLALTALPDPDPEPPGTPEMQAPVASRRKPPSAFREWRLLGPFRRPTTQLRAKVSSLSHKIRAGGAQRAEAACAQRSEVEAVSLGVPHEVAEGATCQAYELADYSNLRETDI

The target of assay [7] is D(2) dopamine receptor (Homo sapiens, UniProt P14416).
Assay [8] addresses T5, 5-hydroxytryptamine receptor 2C (Homo sapiens, UniProt P28335).
T5 sequence (P28335 whole entry): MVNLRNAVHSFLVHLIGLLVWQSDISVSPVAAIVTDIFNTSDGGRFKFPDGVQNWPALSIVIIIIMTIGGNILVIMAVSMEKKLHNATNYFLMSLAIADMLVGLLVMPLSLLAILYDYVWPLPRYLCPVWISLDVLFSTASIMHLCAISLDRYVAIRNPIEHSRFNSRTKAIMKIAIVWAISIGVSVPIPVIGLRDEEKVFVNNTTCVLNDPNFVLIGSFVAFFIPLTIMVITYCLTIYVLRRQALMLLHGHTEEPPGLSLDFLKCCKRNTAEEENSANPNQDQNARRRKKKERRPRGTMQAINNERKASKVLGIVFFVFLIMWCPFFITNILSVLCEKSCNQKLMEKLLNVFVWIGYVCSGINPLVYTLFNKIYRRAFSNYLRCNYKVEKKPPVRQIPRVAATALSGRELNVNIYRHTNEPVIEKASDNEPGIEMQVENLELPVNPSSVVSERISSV

Data on 1 molecule can be found in BindingDB's records for doi:10.1002/(SICI)1098-2396(200002)35:2<79::AID-SYN1>3.0.CO;2-X (Institut De Recherches Servier, 2000).

Values joined by “and” are separate entries in the source; they are usually repeats but may differ in a detail not shown here. Equal values may be shown once.

Chain of D(3) dopamine receptor (P35462 as listed by the source): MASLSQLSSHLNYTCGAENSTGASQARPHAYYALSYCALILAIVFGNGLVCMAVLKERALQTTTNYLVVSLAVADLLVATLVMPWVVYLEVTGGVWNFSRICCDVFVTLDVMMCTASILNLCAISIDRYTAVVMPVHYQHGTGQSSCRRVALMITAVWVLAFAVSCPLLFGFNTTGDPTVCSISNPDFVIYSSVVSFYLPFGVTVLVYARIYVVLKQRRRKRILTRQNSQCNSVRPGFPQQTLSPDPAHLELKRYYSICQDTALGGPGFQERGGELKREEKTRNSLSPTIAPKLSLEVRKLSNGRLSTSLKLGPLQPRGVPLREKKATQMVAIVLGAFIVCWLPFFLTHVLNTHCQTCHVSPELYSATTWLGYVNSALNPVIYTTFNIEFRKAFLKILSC
Chain of 5-hydroxytryptamine receptor 1B (O08892 whole entry): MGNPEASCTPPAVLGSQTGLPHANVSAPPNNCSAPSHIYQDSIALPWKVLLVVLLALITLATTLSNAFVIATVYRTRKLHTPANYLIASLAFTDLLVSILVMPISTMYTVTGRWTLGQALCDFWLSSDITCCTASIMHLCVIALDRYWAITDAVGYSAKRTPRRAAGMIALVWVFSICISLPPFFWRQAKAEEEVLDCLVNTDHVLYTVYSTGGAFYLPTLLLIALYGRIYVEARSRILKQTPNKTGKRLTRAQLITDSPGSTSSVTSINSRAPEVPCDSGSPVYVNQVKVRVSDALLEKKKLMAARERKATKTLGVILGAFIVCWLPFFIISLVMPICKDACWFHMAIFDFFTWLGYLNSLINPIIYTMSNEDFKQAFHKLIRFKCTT
Chain of D(2) dopamine receptor (Rattus norvegicus, UniProt P61169) (P61169 whole entry): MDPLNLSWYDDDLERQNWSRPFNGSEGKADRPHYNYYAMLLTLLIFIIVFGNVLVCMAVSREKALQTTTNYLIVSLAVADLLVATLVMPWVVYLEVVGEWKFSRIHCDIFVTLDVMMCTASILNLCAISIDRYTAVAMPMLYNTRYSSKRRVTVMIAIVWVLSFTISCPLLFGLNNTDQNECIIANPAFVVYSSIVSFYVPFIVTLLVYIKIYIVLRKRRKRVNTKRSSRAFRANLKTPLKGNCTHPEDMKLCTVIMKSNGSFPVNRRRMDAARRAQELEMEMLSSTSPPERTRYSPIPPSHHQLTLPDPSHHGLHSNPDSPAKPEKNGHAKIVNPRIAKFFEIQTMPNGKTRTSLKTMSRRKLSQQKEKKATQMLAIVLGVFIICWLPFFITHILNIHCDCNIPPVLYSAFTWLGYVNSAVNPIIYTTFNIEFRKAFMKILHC
Chain of D(2) dopamine receptor (Homo sapiens, UniProt P14416) (P14416 whole entry): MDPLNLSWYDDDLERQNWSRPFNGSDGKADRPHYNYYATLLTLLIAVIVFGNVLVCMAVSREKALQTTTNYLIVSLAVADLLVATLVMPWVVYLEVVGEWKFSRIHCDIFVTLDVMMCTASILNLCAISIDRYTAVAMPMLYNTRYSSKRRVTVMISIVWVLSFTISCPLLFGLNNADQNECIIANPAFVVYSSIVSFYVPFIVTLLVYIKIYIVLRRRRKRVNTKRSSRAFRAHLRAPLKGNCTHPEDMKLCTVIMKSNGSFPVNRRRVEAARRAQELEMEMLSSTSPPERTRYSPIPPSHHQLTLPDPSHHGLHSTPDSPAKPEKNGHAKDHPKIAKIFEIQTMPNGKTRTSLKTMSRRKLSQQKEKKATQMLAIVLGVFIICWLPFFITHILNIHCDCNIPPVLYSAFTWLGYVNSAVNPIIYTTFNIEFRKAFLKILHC

What is called Ki is a measure of affinity in units of concentration, obtained from inhibition or displacement. Low values mean a stronger hold on the target, high ones a looser hold on the target. For `Fc1cccc2c1OC1CNCC1O2` (centres undefined) [CAS_105182-45-4], the Ki at D(3) dopamine receptor was 1 µM; in assay [1] it was 1 µM; in assay [2], 0.00125 µM; in assay [3], 0.00158 µM; on D(2) dopamine receptor [4] it was 3.16 µM; in assay [5], 0.00794 µM and 0.0063 µM. Besides, the Ki in assay [6] worked out at 0.126 µM; at D(2) dopamine receptor [7], 1 µM; in assay [8] it was 1 µM.
